Patent US7429605B2, “Phenylpyridine derivatives” (Hoffmann-La Roche Inc., priority 2005, dated 2008)

Test system: HEK293 cells
Test: Viability assay in HEK293 cells (CellTiter-Glo Luminescent Cell Viability Assay)
Format: cell-based
Details: Homo sapiens, 7 days (168 h) incubation, compound 3 μM to 0.00015 μM, ATP luminescence
Experimental: Viability Assay in HEK293 Cells
A viability assay was performed using the CellTiter-Glo® Luminescent Cell Viability Assay (see Promega Corporation's Technical Bulletin No. 288, pp. 1-11 [revised 2/04] which is hereby incorporated by reference in its entirety). This assay is a homogeneous method of determining the number of viable cells in culture based on quantitation of the ATP present, an indicator of metabolically active cells. The assay is designed for use with multiwell formats, making it ideal for automated high-throughput screening (HTS), cell proliferation and cytotoxicity assays. The homogeneous assay procedure involves adding a single reagent (containing luciferase, luciferan substrate, and buffer) directly to cells cultured in serum-supplemented medium. Cell washing, removal of medium and multiple pipetting steps are not required. The system detects as few as 15 cells/well in a 384-well format in 10 minutes after adding reagent and mixing.
The homogeneous “add-mix-measure” format results in cell lysis and generation of a luminescent signal proportional to the amount of ATP present. The amount of ATP is directly proportional to the number of cells present in culture. The above-referenced assay generates a “glow-type” luminescent signal, produced by the luciferase reaction, which has a half-life generally greater than five hours, depending on cell type and medium used. The extended half-life eliminates the need to use reagent injectors and provides flexibility for continuous or batch mode processing of multiple plates. The unique homogeneous format avoids errors that may be introduced by other ATP measurement methods that require multiple steps.
HEK293 cells (human embryonic kidney cell line transformed by Adenovirus 5 fragments, ATCC-No. CRL 1573) were cultivated in Dulbecco's Modified Eagle Medium (DMEM) with Glutamax™ (cell culture media that contains L-Alanyl-L-Glutamine [a stabilized form/source of L-Glutamine] from Invitrogen, Cat-No. 31966-021), 5% Fetal Calf Serum (FCS, Sigma Cat-No. F4135 (FBS)), 100 Units/ml penicillin/100 μg/ml streptomycin (=Pen/Strep from Invitrogen Cat. No. 15140). For the assay the cells were seeded in 384 well plates, 5000 cells per well, in the same medium. The next day the test compounds were added in various concentrations ranging from 3 μM to 0.00015 μM (10 concentrations, 1:3 diluted). After 7 days the viability assay was done according to the instructions of the manufacturer. In brief: the cell-plate was equilibrated to room temperature for approximately 30 minutes and than the reagent (containing luciferase, luciferan substrate, and buffer) was added. The contents were carefully mixed for 15 minutes to induce cell lysis. After 45 minutes the luminescent signal was measured in Victor 2, (scanning multiwell spectrophotometer, Wallac).
Medium: Dulbecco's Modified Eagle Medium (DMEM) with Glutamax™ (Invitrogen, 31966-021), 5% Fetal Calf Serum (FCS, Sigma Cat-No. F4135 (FBS)), Pen/Strep (Invitrogen Cat. No. 15140).
Incubate 24 h at 37° C., 5% CO2
2. day Induction (Substance testing):
In general the dilution steeps are 1:3 a) Add 8 μl of 10 mM stock solution of compound to 72 μl DMSO b) dilute 9×1:3 (always 30 μl to 60 μl DMSO) in this DMSO dilution row (results in 10 wells with concentrations from 1000 μM to 0.06 μM) c) dilute each concentration 1:4.8 (10 μl compound dilution to 38 μd medium) d) dilute each concentration 1:10 (10 μl compound dilution to 90 μl medium) e) add 10 μl of every concentration to 60 μl medium in the cell plate resulting in final concentration of DMSO: 0.3% in every well and resulting in final concentration of compounds from 3 μM to 0.00015 μM Incubate 168 h (7 days) at 37° C., 5% CO2
Add 30 μl CellTiter-Glo™ Reagent (containing luciferase, luciferan substrate, and buffer)/well, shake 15 minutes at room temperature incubate further 45 minutes at room temperature without shaking.
Victor 2 scanning multiwell spectrophotometer (Wallac), Luminescence mode […]

Row | Structure (SMILES) | IC50
1 | Cc1cc(OCc2ccc(-c3ccc(F)cc3)nc2C)ccc1CCCCn1ccnn1 [Example 17, 6-(4-Fluoro-phenyl)-2-methyl-3-[3-Methyl-4-(4-[1,2,3]triazol-1-yl-butyl)-phenoxymethyl]-pyridine] | 0.005 to 1 µM
2 | Cc1cc(OCc2ccc(-c3ccc(OC(F)(F)F)cc3)nc2)ccc1CCCCn1ccnn1 [Example 4, 5-[3-Methyl-4-(4-[1,2,3]triazol-1-yl-butyl)-phenoxymethyl]-[2-(4-trifluoromethoxy-phenyl)]-pyridine] | 0.365 µM
3 | Cc1cc(OCc2ccc(-c3ccc(C(F)(F)F)cc3)nc2)ccc1CCCCn1ccnn1 [Example 5, 5-[3-Methyl-4-(4-[1,2,3]triazol-1-yl-butyl)-phenoxymethyl]-2-(4-trifluoromethyl-phenyl)-pyridine] | 0.089 µM
4 | FC(F)(F)c1ccc(-c2cncc(COc3ccc(CCCCn4ccnn4)cc3)c2)cc1 [Example 33, 3-[4-(4-[1,2,3]Triazol-1-yl-butyl)-phenoxymethyl]-5-(4-trifluoromethyl-phenyl)-pyridine] | 1 to 5 µM
5 | Cc1cc(OCc2cccc(-c3ccc(OC(F)(F)F)cc3)n2)ccc1CCCCn1ccnn1 [Example 30, 2-[3-Methyl-4-(4-[1,2,3]triazol-1-yl-butyl)-phenoxymethyl]-6-(4-trifluoromethoxy-phenyl)-pyridine] | 1 to 5 µM
6 | Cc1cc(OCc2ccc(-c3cccc(OC(F)(F)F)c3)nc2C)ccc1CCCCn1ccnn1 [Example 15, 2-Methyl-3-[3-Methyl-4-(4-[1,2,3]triazol-1-yl-butyl)-phenoxymethyl]-6-(3-trifluoromethoxy-phenyl)-pyridine] | 1 to 5 µM
7 | Cc1nc(-c2ccc(C(F)(F)F)cc2F)ccc1COc1ccc(CCCCn2ccnn2)cc1 [Example 43, 6-(2-Fluoro-4-trifluoromethyl-phenyl)-2-methyl-3-[4-(4-[1,2,3]triazol-1-yl-butyl)-phenoxymethyl]-pyridine] | 1 to 5 µM
8 | Cc1cc(OCc2ccc(-c3ccc(Cl)cc3)nc2)ccc1CCCCn1ccnn1 [Example 28, 2-(4-Chloro-phenyl)-5-[3-methyl-4-(4-[1,2,3]triazol-1-yl-butyl)-phenoxymethyl]-pyridine] | 1 to 5 µM
9 | Clc1ccc(-c2ccc(COc3ccc(CCCCn4ccnn4)cc3)cn2)cc1 [Example 27, 2-(4-Chloro-phenyl)-5-[4-(4-[1,2,3]triazol-1-yl-butyl)-phenoxymethyl]-pyridine] | 0.005 to 1 µM
10 | Cc1cc(OCc2cncc(-c3ccc(Cl)cc3)c2)ccc1CCCCn1ccnn1 [Example 38, 3-(4-Chloro-phenyl)-5-[3-methyl-4-(4-[1,2,3]triazol-1-yl-butyl)-phenoxymethyl]-pyridine] | 1 to 5 µM
11 | Cc1nc(-c2ccc(C(F)(F)F)cc2)ccc1COc1ccc(CSCCn2ccnn2)cc1 [Example 22, 2-Methyl-3-[4-(2-[1,2,3]triazol-1-yl-ethylsulfanylmethyl)-phenoxymethyl]-6-(4-trifluoromethyl-phenyl)-pyridine] | 0.005 to 1 µM
12 | Cc1cc(OCc2ccc(-c3ccc(C(F)(F)F)cc3F)nc2C)ccc1CCCCn1ccnn1 [Example 42, 6-(2-Fluoro-4-trifluoromethyl-phenyl)-2-methyl-3-[3-methyl-4-(4-[1,2,3]triazol-1-yl-butyl)-phenoxymethyl]-pyridine] | 0.005 to 1 µM
13 | FC(F)(F)c1ccc(-c2cccc(COc3ccc(CCCCn4ccnn4)cc3)n2)cc1 [Example 18, 2-[4-(4-[1,2,3]triazol-1-yl-butyl)-phenoxymethyl]-6-(4-trifluoromethyl-phenyl)-pyridine] | 1 to 5 µM
14 | FC(F)(F)c1ccc(-c2ccc(COc3ccc(CCCCn4ccnn4)cc3)cn2)cc1 [Example 3, 5-[4-(4-[1,2,3]triazol-1-yl-butyl)-phenoxymethyl]-[2-(4-trifluoromethyl-phenyl)]-pyridine] | 0.005 to 1 µM
15 | Cc1nc(-c2ccc(Cl)cc2)ccc1COc1ccc(CCCCn2ccnn2)cc1 [Example 20, 6-(4-Chloro-phenyl)-2-methyl-3-[4-(4-[1,2,3]triazol-1-yl-butyl)-phenoxymethyl]-pyridine] | 0.005 to 1 µM
16 | Clc1ccc(-c2cccc(COc3ccc(CCCCn4ccnn4)cc3)n2)cc1 [Example 35, 2-(4-Chloro-phenyl)-6-[4-(4-[1,2,3]triazol-1-yl-butyl)-phenoxymethyl]-pyridine] | 1 to 5 µM
17 | Cc1cc(OCc2cccc(-c3ccc(C(F)(F)F)cc3)n2)ccc1CCCCn1ccnn1 [Example 19, 2-[3-Methyl-4-(4-[1,2,3]triazol-1-yl-butyl)-phenoxymethyl]-6-(4-trifluoromethyl-phenyl)-pyridine] | 0.005 to 1 µM
18 | Cc1cc(OCc2ccc(-c3ccc(OC(F)(F)F)cc3)nc2C)ccc1CCCCn1ccnn1 [Example 11, 2-Methyl-3-[3-Methyl-4-(4-[1,2,3]triazol-1-yl-butyl)-phenoxymethyl]-6-(4-trifluoromethoxy-phenyl)-pyridine] | 0.005 to 1 µM
19 | Cc1nc(-c2ccc(C(F)(F)F)cc2)ccc1COc1ccc(COCCn2ccnn2)cc1 [Example 8, 2-Methyl-3-[4-(2-[1,2,3]triazol-1-yl-ethoxymethyl)-phenoxymethyl]-6-(4-trifluoromethyl-phenyl)-pyridine] | 0.005 to 1 µM
20 | Cc1nc(-c2ccc(C(F)(F)F)cc2)ccc1COc1ccc(C[S+]([O-])CCn2ccnn2)cc1 (stereo not drawn) [Example 9, 2-Methyl-3-[4-(2-[1,2,3]triazol-1-yl-ethanesulfinylmethyl)-phenoxymethyl]-6-(4-trifluoromethyl-phenyl)-pyridine] | 1 to 5 µM
21 | Cc1cc(OCc2ccc(-c3ccc(C(F)(F)F)cc3)nc2C)ccc1CCCCn1ccnn1 [Example 6, 2-Methyl-3-[3-Methyl-4-(4-[1,2,3]triazol-1-yl-butyl)-phenoxymethyl]-6-(4-trifluoromethyl-phenyl)-pyridine] | 0.005 to 1 µM
22 | Cc1nc(-c2ccc(C(F)(F)F)cc2)ccc1COc1ccc(CCCCn2ccnn2)cc1 [Example 7, 2-Methyl-3-[4-(4-[1,2,3]triazol-1-yl-butyl)-phenoxymethyl]-6-(4-trifluoromethyl-phenyl)-pyridine] | 0.005 to 1 µM
23 | Cc1nc(-c2ccc(F)cc2)ccc1COc1ccc(CSCCn2ccnn2)cc1 [Example 23, 6-(4-Fluoro-phenyl)-2-methyl-3-[4-(2-[1,2,3]triazol-1-yl-ethylsulfanylmethyl)-phenoxymethyl]-pyridine] | 1 to 5 µM
24 | Cc1nc(-c2ccc(F)cc2)ccc1COc1ccc(CCCCn2ccnn2)cc1 [Example 16, 6-(4-Fluoro-phenyl)-2-methyl-3-[4-(4-[1,2,3]triazol-1-yl-butyl)-phenoxymethyl]-pyridine] | 0.005 to 1 µM
25 | Cc1cc(OCc2ccc(-c3ccc(Cl)cc3)nc2C)ccc1CCCCn1ccnn1 [Example 21, 6-(4-Chloro-phenyl)-2-methyl-3-[3-Methyl-4-(4-[1,2,3]triazol-1-yl-butyl)-phenoxymethyl]-pyridine] | 0.005 to 1 µM
26 | Cc1cc(OCc2ccc(-c3cccc(C(F)(F)F)c3)nc2)ccc1CCCCn1ccnn1 [Example 26, 5-[3-Methyl-4-(4-[1,2,3]triazol-1-yl-butyl)-phenoxymethyl]-2-(3-trifluoromethyl-phenyl)-pyridine] | 1 to 5 µM
27 | Cc1cc(OCc2ccc(-c3cccc(C(F)(F)F)c3)nc2C)ccc1CCCCn1ccnn1 [Example 13, 2-Methyl-3-[3-Methyl-4-(4-[1,2,3]triazol-1-yl-butyl)-phenoxymethyl]-6-(3-trifluoromethyl-phenyl)-pyridine] | 1 to 5 µM
